{"source": "patent US20230357292A1", "about": "“MULTI-COORDINATE GOLD-PHOSPHINE COMPOUNDS AND METHOD OF USE” (University of Kentucky Research Foundation, priority 2020, published 2023)", "key": {"[1]": {"conditions": "37° C.", "description": "To determine the stability of gold compounds under physiological conditions in the presence of biological nucleophiles, UV absorbance measurements were conducted over a 24 h time period. Briefly, AuPhos was dissolved in media from a DMSO stock. To this solution was added 10 mM L-glutathione.\nTo study the stability of the gold(III) compounds in solution, the UV-vis profile of the representative compounds was evaluated in biologically relevant media at physiological temperature of 37° C. Given the common limitation of gold compounds to promiscuously bind thiol containing biomolecules, the interaction of gold(III) complex AuPhos89 was investigated with physiologically relevant concentration of L-glutathione (10 mM) in Dubelcco modified essential medium (DMEM)."}, "[2]": {"conditions": "10 mg kg−1 IV, 1 h and 24 h; heart, lung, liver, spleen, kidney, tumor", "experimental": "With four mice inoculated with 4T1 (1,000,000 cells), after 20 days, AuPhos-89 was inserted into mice by IV administration (0.1 mL, 10 mg/kg). Each tissue was obtained by sacrificing the mice (n=2) 1 and 24 hours later. […] The solution turned yellow and diluted as needed to measure the gold content using a Graphite Furnace Atomic Absorption Spectrometer. Before measuring all samples, the standard solution curves were measured.\nAfter respective time points of 1 h and 24 h, mice were euthanized. Organs including heart, lung, liver, spleen, kidney, and tumor were excised and the gold concentration was analyzed by GF-AAS."}, "[3]": {"conditions": "10 mM in DMSO-d6, 24 h", "description": "Stock solutions comprised of a 1 mL, 20 mM solution of AuPhos-89 in DMSO-d6. The solution of L-GSH (20 mM) was sonicated for 5 minutes to dissolve the reagent in DMSO-d6. 1 mL of each solution were mixed in a 1:1 ratio to produce a final concentration of 10 mM in DMSO-d6. The solution was then analyzed by 1H NMR spectroscopy. The solution was further analyzed at different time intervals, t=1 h, 6 h, 12 h, and 24 h."}, "MDA-MB-231 cells [4]": {"tested_on": "MDA-MB-231 cells", "experiment": "Western blotting of apoptotic markers and AMPK", "conditions": "1 μM, indicated times", "experimental": "Furthermore, to determine if AuPhos-89 induces apoptosis through the caspase-mediated apoptotic pathway, western blotting was performed to assess the induction of caspases and cleaved PARP (FIG. 7C). […] Global changes in proteins were investigated using quantitative proteomics after 12 h of exposing MDA-MB-231 cells to AuPhos-89 at 1 μM. In this tandem mass tag (TMT)-based quantification, protein was extracted from cryo-preserved cell pellets and following tryptic digestion, TMT-labeling was performed. After fractionation, tandem LC-MS/MS was conducted and database search against HUMAN protein database was carried out. Proteins of relative quantification were divided into two categories. A quantitative ratio over 1.5 was considered upregulation while a quantitative ratio less than 1/1.5 was considered as downregulation."}, "[5]": {"tested_on": "4T1 cells engineered to express RFP", "conditions": "10 mg kg−1 day−1, six treatments, thrice a week, compared with controls", "source_text": "Murine TNBC 4T1 cells engineered to express RFP were also subcutaneously injected into flanks of immunocompromised mice in the presence of Matrigel."}, "4T1 tumor [6]": {"tested_on": "4T1 tumor", "experiment": "In vivo comparative experiment of AuPhos-89 and cisplatin, 4T1, IP", "design": "species or system BALB/c mice", "description": "Mice were implanted with 2,000,000 4T1 cells subcutaneously on their flanks. […] The control group was injected with a PBS solution containing 1.5% DMSO and 12% Kolliphor. Injection and tumor-size/body-weight measurement was performed three days a week.\nMice organs (heart, lung, liver, kidney, spleen, and tumor) were fixed in freshly prepared paraformaldehyde (4% in PBS), the fixation time was 24 hours. And those processed for paraffin sectioning. The organs sections of 5 μm were stained with H&E staining and used for histological examination of the organs and tumor. A total of 5 sections per tissues (spanning the full depth of the organ) were examined and photographed using a Nikon Eclipse 55i microscope. […]"}, "[7]": {"tested_on": "isolated mitochondria from the liver of C57BL/6J mice", "conditions": "1 μM, in the presence of oligomycin; dose-dependent up to about 10 μM", "description": "(§1) Analysis. The initial step of Seahorse XF96 analysis included optimization of the cell density. In this stage, isolated mitochondria (30 μg) or MDA-MB-231 cells were seeded at a range of densities from 2000 cells/well to 100,000 cells/well, followed by optimization of the FCCP injection concentration used (0.6 μM of 1.2 μM). […] All Seahorse XF96 experiments with MDA-MB-231 were performed under these conditions. The cells were seeded the night prior to the experiment with a final volume of 100 μL and incubated overnight at 37° C. AuPhos-89 was prepared as a stock in DMSO/DMEM (% v/v=20:80) and diluted to a working concentration of 100 μM with Seahorse XF96 assay buffer and then subsequently serial diluted by 10× to achieve multiple concentrations. The assay was performed using a pneumatic injection method of AuPhos-89, with the final injection concentrations of 0.01, 0.1, 1, and 10 μM. This was followed by injection of oligomycin (1.5 μM), FCCP (0.6 μM) and rotenone/antimycin A (0.5 μM)."}, "MDA-MB-231 cells [8]": {"tested_on": "MDA-MB-231 cells", "conditions": "live MDA-MB-231 cells, mito-stress test", "description": "as §1"}, "MDA-MB-231 cells [9]": {"tested_on": "MDA-MB-231 cells", "conditions": "1 μM; 24 h, 48 h, 72 h", "experimental": "MDA-MB-231 cells were seeded at a density of 5×10^5 cells/well in a 6-well clear bottom plate with a final media volume of 2 mL and allowed to adhere overnight 37° C. […] After the desired treatment period, the medium was removed and added to a 15 mL Falcon tube. The wells were washed with 5 mL of PBS and added to the Falcon tube. The cells were trypsinized (1 mL) and added 5 mL of fresh DMEM. All media were combined, and the tube centrifuged at 2000 rpm for 5 minutes to collect the pellet. The medium was decanted, and the pellet suspended in 1 mL of PBS, which was then transferred to a 1 mL Eppendorf tube, centrifuged at 2000 rpm for 5 minutes and suspended in 70% EtOH/PBS solution. These solutions were stored at 4° C. until ready for analysis. […] The cells were washed twice with PBS (1 mL) and suspended in a 50 μL of RNase solution (100 μg/mL) and 200 μL of a 50 μg/mL PI solution. The solutions were then filtered through a 5 mL polystyrene round-bottom tube fit with a cell-strainer cap. The samples were then analyzed with FACS."}, "[10]": {"conditions": "equimolar glutathione, aqueous solution, 24 h", "experimental": "All spectra were recorded using an Agilent Technologies 1100 series HPLC instrument and an Agilent Phase Eclipse Plus C18 column (4.6 mm×100 mm; 3.5 μm particle size). AuPhos-89 and glutathione were prepared as 1 mM stock in DMSO and water, respectively. Equimolar amounts were mixed and the solutions were measured at 0, 1, 3, and 24 h by HPLC. The parameters used in the HPLC were as follows: flow rate, 1 mL/min; λ=280 nm; eluent A=H2O with 0.1% TFA; Eluent B═CH3CN with 0.05% HCOOH; Solvent gradient: 0 min (100:0 H2O:CH3CN), 10 min (0:100 H2O:CH3CN), 15 min (100:0 H2O:CH3CN)."}, "MDA-MB-231 (breast)": {"tested_on": "MDA-MB-231 (breast)", "experiment": "Cell viability, crystal violet assay, MDA-MB-231", "assay_type": "cell-based, human", "source_text": "The plates were washed with water and dried again."}, "4T1 tumor [11]": {"tested_on": "4T1 tumor", "experimental": "Female, 5 week-old BALB/c mice were purchased from Charles River Laboratories (Wilmington, MA). All mice were quarantined for 1 week prior to use and kept in micro-isolator cages (four mice per cage) in a temperature- and humidity-controlled environment as per the Division of Laboratory Animal Research (DLAR) of University of Kentucky. All mice were maintained in a pathogen-free environment under the care of DLAR of University of Kentucky. The study was performed in compliance with the NIH guidelines (NIH Publication No. 85-23 Rev. 1985) for the care and use of laboratory animals and all experimental procedures were monitored and approved by the Institutional Animal Care and Use Committee (IACUC) of University of Kentucky (USA).\nThe control group was injected with a PBS solution containing 1% DMSO and 1% Kolliphor.\nA separate group of mice was administered equal volumes of vehicle control at the same time points and via the analogous route."}, "MDA-MB-231 cells [12]": {"tested_on": "MDA-MB-231 cells", "conditions": "1 μM for 15 h, FACS", "description": "MDA-MB-231 cells were seeded at a density of 5×10^5 cells/well in a 6-well clear bottom plate with a final media volume of 2 mL. The cells were allowed to adhere overnight at 37° C. A stock of AuPhos-89 was prepared fresh in DMSO/DMEM (% v/v=20:80) and added to the desired well at a concentration of 1 μM with a final volume of 2.5 mL and incubated for 15 h at 37° C. A stock of H2O2 was prepared in PBS and the cells treated at a final concentration of 2 mM for 3 hours and used as positive control. When ready for analysis, medium was removed and the wells washed with 5 mL of PBS. The cells were trypsinized (1 mL), 5 mL of DMEM were added to each well, and total volume collected and centrifuged to pellet the cells. The cells were resuspended in 2 mL of fresh media, counted, and reconstituted to a concentration of 1×10^5 cells/mL. The cells were centrifuged again, and the pellet suspended in 500 μL of Annexin binding buffer. To each sample was added 5 μl of Annexin V-FITC and 5 μl PI and incubated in the dark at room temperature for 5 minutes. The samples were then subjected to FACS analysis."}, "MDA-MB-231 cells [13]": {"tested_on": "MDA-MB-231 cells", "conditions": "TMRE or JC-1 assay, short exposure periods", "experimental": "MDA-MB-231 cells were plated at a density of 5×10^5 cells/plate in a 6 well plate and allowed to adhere overnight at 37° C. […] The cells were incubated (37° C., 5% CO2) for 1 h at this concentration. Carbonyl cyanide 3-chlorophenylhydrazone (CCCP) was prepared as a stock in DMSO and added at a final concentration of 100 μM, and the cells were treated for 1 h. It was used as a positive control. After the indicated treatment time, a working solution of the JC-1 dye (Cayman Chemicals, Cat. #15003) was prepared by adding 100 μL of dye into 900 μL of DMEM. Note: the working solution of JC-1 should always be prepared fresh and not stored for long-term use. Then, 100 μL/mL of working solution of the JC-1 dye was added to the cells and incubated at 37° C. for 20 minutes. The cells were harvested and resuspended in 2 mL PBS. The cells were analyzed on a flow cytometer with 488 nm excitation and appropriate emission filters. Gated cells, excluded debris and the CCCP-treated sample was used to performed standard compensation."}}, "note": "Entries after “also recorded” stand apart in the source; their conditions may differ. Where two headings read alike, the source gives them in different places."}
{"molecule": "[Cl-].[Cl][Au-]1([c]2ccccc2-c2ccccn2)[P+](c2ccccc2)(c2ccccc2)c2ccccc2[P+]1(c1ccccc1)c1ccccc1", "note": "[AuPhos-89, (2-phenylpyridine)[1,2-Bis(diphenylphosphino)benzene]gold(III) Dichloride]", "values": [{"measurement": "stability, UV-vis absorption with L-glutathione", "setting": "[1]; 10 mM L-glutathione in media (DMEM), 24 h", "result": "no alteration to the absorption band"}, {"measurement": "stability, UV-vis absorption in RPMI-1640", "setting": "[1]; RPMI-1640, 24 h", "result": "no changes to the absorption spectra"}, {"measurement": "tissue biodistribution, Au levels in organs", "setting": "[2]", "result": "confirmed the uptake"}, {"measurement": "stability with L-GSH, proton resonances", "setting": "[3]", "result": "minimally altered"}, {"measurement": "induction of caspases, cleaved PARP and AMPK", "setting": "MDA-MB-231 cells [4]", "result": "activate cleaved caspases, PARP and the cellular energy regulator, AMPK"}, {"measurement": "tumor growth", "setting": "[5]", "result": "significant attenuation of growth"}, {"measurement": "liver metastasis (H&E sections)", "setting": "4T1 tumor [6]; 4T1 tumor-bearing mice, treated versus control", "result": "can inhibit liver metastasis; also recorded: not visible; also recorded: no palpable metastatic lesions"}, {"measurement": "tumor inhibition compared with the control group", "setting": "4T1 tumor [6]; AuPhos-89 10 mg kg−1 IP, cisplatin 3 mg kg−1 IP", "result": "significant tumor inhibition"}, {"measurement": "body weight", "setting": "4T1 tumor [6]; intraperitoneal administration", "result": "kept constant"}, {"measurement": "survival", "setting": "4T1 tumor [6]; mouse, in vivo, ip", "result": "increased rates of survival"}, {"measurement": "tumor volume", "setting": "4T1 tumor [6]; six treatments, thrice a week, IP, AuPhos-89 10 mg kg−1, cisplatin 3 mg/kg, versus vehicle control", "result": "reduced tumor volume"}, {"measurement": "mitochondrial oxygen consumption rate (OCR)", "setting": "[7]", "result": "increased oxygen consumption"}, {"measurement": "ATP production", "setting": "MDA-MB-231 cells [8]", "result": "diminished ATP production"}, {"measurement": "proton leak", "setting": "MDA-MB-231 cells [8]", "result": "acutely induced proton leak"}, {"measurement": "cell cycle distribution", "setting": "MDA-MB-231 cells [9]", "result": "no significant changes to the cell cycle"}, {"measurement": "stability with L-GSH, HPLC chromatogram", "setting": "[10]", "result": "little change"}, {"measurement": "IC50", "setting": "MDA-MB-231 (breast); MDA-MB-231 (breast), 4,000 cells/well, treated 72 h, mean ± SD (n = 3)", "result": "450 ± 140", "unit": "nM"}, {"measurement": "IC50", "setting": "MDA-MB-231 (breast); cell line not stated at the place (structure-activity relationship studies)", "result": 220, "unit": "nM"}, {"measurement": "tumor growth rate", "setting": "4T1 tumor [11]; 10 mg kg−1 IV, 3 weekly injections, n=5, versus vehicle control", "result": "decreased significantly"}, {"measurement": "body weight", "setting": "4T1 tumor [11]; end of the observation period", "result": "did not exhibit significant change"}, {"measurement": "population of cells in early to late apoptosis", "setting": "MDA-MB-231 cells [12]", "result": "~40", "unit": "%"}, {"measurement": "mitochondrial membrane potential (MMP)", "setting": "MDA-MB-231 cells [13]", "result": "depolarization of the MMP"}]}
